Experimental data reported in patent publication US6310037A, “Method of controlling protozoan infections using syringomycin-family lipodepsipeptides” (Utah State University, priority 1999, dated 2001).
Where a SMILES comes first, the peptide text is derived from it. Bridges are numbered along the chain shown (N, C = ends). [ ]: non-standard residue; d: D form. The star is where a group is joined. Asp(3S-OH) = N[C@H](C(=O)O)[C@H](O)C(=O)O; Thr(4-Cl) = N[C@H](C(=O)O)[C@H](O)CCl; X1 = CCCCCCCCC[C@@H](O)CC(=O)*; dDab = NCC[C@@H](N)C(=O)O; Dab = NCC[C@H](N)C(=O)O; Dhb = C/C=C(\N)C(=O)O

Experiments:
[1] = tested on: MDBK cells; experiment: Cytotoxicity of Syr-E to MDBK host cells (LDH assay, visual observation); assay type: cell-based, bovine; conditions: for Syr-E related cytotoxicity (LDH assay) compared to infected and untreated control: Syr-E 5, 10, 15, 20 μg/ml tested
Excerpt: Madin-Darby bovine kidney (MDBK) epithelial cells were also used to culture C. parvum in this study. Dulbecco's modified Eagle medium (DMEM) with 10% FBS was used for routine passage of MDBK cells purchased from American Type Collection for Culture (Rockville, Md.). Mycoplasma contamination was periodically checked with Hoechst staining (Uphoff et al., 1992). At confluence, MDBK cells were lifted from culture flasks with trypsin, enumerated, and redistributed to assay plates. Ninety-six well cell culture plates were employed to assess cytotoxicity of testing agents or the parasite or both to host cells using neutral red staining or lactic dehydrogenase (LDH) assay.
A volume of 10 μl/well culture supernatant was pipetted into a 96-well plate and mixed with 50 μl/well substrate solution containing 0.75 mM sodium pyruvate and 1 mg beta-NADH/ml. Following incubation at 37° C. for 30 min, the plate was added with 50 μl of 2,4-dinitrophenylhydrazine/well and kept at 25° C. for 20 min., and then the plate was added with a volume of 200 μl/well of 0.6 N NaOH, mixed well, and retained at 25° C. for 10 min. prior to being quantified by the Microplate Autoreader with a wavelength set at 515 nm.
A single concentration of Syr-E at 15 μg/ml was used to treat MDBK cells at pH 7 with C. parvum infection. Group 1 served as an infection control, receiving no Syr-E treatment. Syr-E was administered 1 day prior to parasite inoculation to groups 2, 4, and 5, at the inoculation day to groups 3-5, and 1 day post inoculation to groups 3 and 5, respectively. Following specified administration day(s), supernatants of corresponding wells containing Syr-E were removed and replaced with fresh DMEM base. Cytotoxicity was monitored using lactic dehydrogenase (LDH) assay on day 1 post inoculation. Three coverslips from each group were collected on days 2 and 5 post inoculation, were fixed, and were stained with the specific IFA, as described with reference to Example II.
Group 1 received neither Syr-E treatment nor inoculation and its cytotoxicity was set at 0%, as illustrated on day 2. Group 2 received only C. parvum inoculation serving as an infection control. Groups 3-6 received both the inoculation and Syr-E treatments at 5, 10, 15, and 20 μg/ml, respectively. Data in FIG. 4 are presented as the means +/- standard errors of the mean. […] Cytotoxicity of Syr-E to host cells was measured using LDH assay on both days 1 and 2 post inoculation. More (P<0.01) cytotoxicity was shown on day 1 post inoculation than day 2 post inoculation. […] Overall, more cytotoxicity was observed as Syr-E concentrations increased.

[2] = tested on: C. parvum; experiment: C. parvum development in BFTE cell culture at pH 6.3; assay type: cell-based, C. parvum (bovine isolate); conditions: BFTE cells, pH 6.3, day 2 post inoculation
Procedure: C. parvum (bovine isolate) oocysts used in this study were originally donated by the U.S. Department of Agriculture, Ames, Iowa. The oocysts were isolated from calf manure, preserved in 2.5% potassium dichromate at 4° C., and used within 3 months of purification. Oocysts were decontaminated by suspension in 20% (vol/vol) 1.05% sodium hypochlorite on ice for 20 minutes. Oocysts were then washed three times in Hanks' balanced salt solution ("HBSS") and once in RPMI 1640 (available from Sigma, St. Louis, Mo.). Release of sporozoites was achieved by incubating oocysts in an excystation solution consisting of 0.25% (wt/vol) trypsin (available from Sigma, St. Louis, Mo.) and 0.75% (wt/vol) taurodeoxycholic acid (available from Sigma) in HBSS. The resulting suspension was incubated at 37° C. for 45 minutes and microscopically observed to confirm sporozoite release. Sporozoites were completely separated from intact oocysts and oocyst walls by passage through sterile polycarbonate filters (3 micron pore size, available from Millipore Corp., Bedford, Mass.) twice prior to inoculation of bovine fallopian tube epithelial ("BFTE") cell monolayers.
Primary BFTE cell cultures were prepared from bovine fallopian tubes (FT). […]
The inhibitory effect of Syr-E on C. parvum development was monitored in BFTE cell culture at pH 6.3. […]

C/C=C1\NC(=O)[C@H](Cc2ccccc2)NC(=O)[C@H](CCCNC(=N)N)NC(=O)[C@H](CCN)NC(=O)[C@@H](CCN)NC(=O)[C@@H](CO)NC(=O)[C@@H](NC(=O)C[C@H](O)CCCCCCCCC)COC(=O)[C@H]([C@H](O)CCl)NC(=O)[C@H]([C@H](O)C(=O)O)NC1=O [Syr-E, Syringomycin-E] (X1-S[dS][dDab][Dab]RF[Dhb][Asp(3S-OH)][Thr(4-Cl)]; ester 1-C)
visual cell damage ([1]; Syr-E 15 μg/ml, MDBK cells, pH 7, Table 1 schedule): no visual cell damage observed | cytotoxicity by LDH assay, treatment schedule groups vs untreated control ([1]; Syr-E 15 μg/ml, MDBK cells, pH 7, day 1 post inoculation, Table 1 schedule): failed to show significant differences between groups except group 3 | visible cell damage on cell monolayers ([1]; Syr-E 5-20 μg/ml, MDBK cells, pH 7.0): No obvious cell peeling or plaques formed on cell monolayers | Syr-E related cytotoxicity (LDH assay) compared to infected and untreated control ([1]; pH 7.0, day 1 post inoculation): cytotoxicity appeared at 20 μg/ml on day 1 post inoculation | Syr-E related cytotoxicity (LDH assay) compared to infected and untreated control ([1]; pH 7.0, day 2 post inoculation): 15 and 20 μg/ml on day 2 post inoculation | infection percentage vs lower Syr-E concentrations (0.5 to 3.0 μg/ml) ([2]; Syr-E 9.0 μg/ml): further reduced the infection percentage significantly (P<0.01) | infection percentage vs non-treated controls ([2]; Syr-E 0.5, 1.0, 3.0 and 9.0 μg/ml): significantly (at least P<0.01) reduced the infection percentage
